Measured values from PubChem BioAssay AID1996.
Values after ≈ are worked out from the molar mass of the structure shown.

details: buffer; pH 7.4; 200.0 µM

| Structure (SMILES) | solubility kinetic [µg/mL] |
| --- | --- |
| COC(=O)c1ccc(NC(=O)c2cc(Cl)ccc2OC)cc1 | < 0.7 |
| FC(F)(F)c1ccccc1NC1=NCCCS1 | > 39 |
| CN1CCN(C(=O)c2cc3cc(F)ccc3[nH]2)CC1 | > 39.2 |
| CCC(Oc1ccccc1)C(=O)Nc1ccccc1N1CCCCC1 (stereo not given) | 0.7 (≈ 2.07 µM) |
| O=C(CCl)Nc1ccc(S(=O)(=O)Nc2nccs2)cc1 | 34 (≈ 102 µM) |
| COc1ccccc1P(=O)(c1ccccc1)c1ccccc1NC(C)=O (stereo not given) | > 54.8 |
| O=C(Cn1c2ccc(F)cc2c2nc3n(c(=O)c21)CCS3)N1CCCC1 | > 55.9 |
| COc1cc(CN2CCSCC2)c([N+](=O)[O-])cc1OC | 35.2 (≈ 118 µM) |
| Nc1nc2ccc(C(=O)NCCOC(=O)C3CCCCC3)cc2s1 | 12.8 (≈ 36.8 µM) |
| O=C(NCCc1ccccc1)C1CCCN(c2cnccn2)C1 (stereo not given) | 45.9 (≈ 148 µM) |
| CC(NC(=O)COC(=O)c1cc(=O)c2ccccc2o1)c1ccccc1 (stereo not given) | > 52.7 |
| Cc1cccc(C(=O)Nc2ccc(O)cc2C(=O)O)c1 | > 40.7 |
| O=C(NC(=O)N1CCCCC1)c1ccc(Cl)cc1 | > 40 |
| CN(C(=O)c1ccccc1-c1ccccc1C(=O)O)c1ccccc1 | 44.5 (≈ 134 µM) |
| CSc1nc(-c2ccccc2)nc(NC(=O)C(C)C)c1C(C)=O | 0.8 (≈ 2.43 µM) |
| CC(=O)Nc1ccc(S(=O)(=O)N(C)CC(=O)N2CCN(C(=O)c3ccco3)CC2)cc1 | > 67.3 |
| COc1ccc(CNC2c3ccccc3-c3ccccc32)cc1OC | 31.4 (≈ 94.7 µM) |
| Nc1ccc2nc(COc3ccccc3)[nH]c2c1 | 12.4 (≈ 51.8 µM) |
| COc1ccc(-c2cn(-c3ccccc3)c(=S)[nH]2)cc1OC | 22.6 (≈ 72.3 µM) |
| COCCCNC(=S)Nc1ccc(OC(F)F)cc1C | 45.1 (≈ 148 µM) |
| Cc1ccc(C)c(NC(=O)CCN2CCC(C)CC2)c1 | > 41.2 |
| COc1ccc(NC(=O)C2CC2)cc1OC1CCCC1 | 16 (≈ 58.1 µM) |
| COc1ccccc1CNC(=O)Cc1c[nH]c2ccccc12 | > 44.2 |
| CCc1noc(C)c1C(=O)Nc1nc2c(C)cc(C)cc2s1 | 3.2 (≈ 10.1 µM) |

| Structure (SMILES) | solubility kinetic [µg/mL] |
| --- | --- |
| CCOc1ccc(CC(=O)Nc2nccs2)cc1OCC | 31.7 (≈ 103 µM) |
| Cc1ccc(C2NCCS2)cc1 (stereo not given) | > 26.9 |
| CC1CCN(C2(O)C(=O)Nc3ccc(Cl)cc32)CC1 (stereo not given) | > 42.1 |
| CCCOc1ccc(N2C(=O)CC(N(CCCO)C(=O)CC)C2=O)cc1 (stereo not given) | > 54.4 |
| COc1ccc(NC(=O)NCCCCc2ccccc2)c(OC)c1 | 0.7 (≈ 2.13 µM) |
| CCCN1C(=O)c2ccccc2NC1c1ccc(Cl)cc1 (stereo not given) | 3.2 (≈ 10.6 µM) |
| O=C(CN1C(=O)NC2(CCOc3ccccc32)C1=O)NCCc1ccccc1 (stereo not given) | > 56.9 |
| CC(=O)Oc1ccc(C(=O)NCc2ccc3c(c2)OCO3)cc1 | 29.1 (≈ 92.9 µM) |
| Cc1ccc(CNC(=O)C2CC(=O)N(C3CCCCCC3)C2)cc1 (stereo not given) | 48.8 (≈ 149 µM) |
| Cc1ccc(C(=O)Nc2ccccc2N2CCCCC2)cc1 | < 0.3 |
| O=C(Nc1cccc(Cl)c1)c1cnccn1 | 26.5 (≈ 113 µM) |
| COc1ccc(CCNC(=O)C2CCCN(c3ncccn3)C2)cc1 (stereo not given) | 49 (≈ 144 µM) |
| Cc1cc(SCC(=O)c2ccccc2)nc(=O)[nH]1 | 16.7 (≈ 64.2 µM) |
| COc1ccc(OCC(=O)OC2CCCN(C)C2)cc1.Cl (stereo not given) | > 47.4 |
| Cc1ccccc1NC(=O)CCCCC(=O)Nc1ccccc1C | 2.6 (≈ 8.01 µM) |
| CCOC(=O)C1=NNC2(CC(=O)N(c3cccc(C)c3)C2=O)C1 (stereo not given) | > 47.3 |
| C/C(N)=C(/C#N)C(=O)COC(=O)C1=NN(c2ccccc2)C(=O)CC1 | > 51.1 |
| Cc1cc(O)cc(=O)n1CCc1ccccc1 | > 34.4 |
| COc1ccccc1-n1c(C)c(C(C)=O)c2cc(O)ccc21 | 3 (≈ 10.2 µM) |
| Cc1ccn2cc(-c3cc4ccccc4oc3=O)nc2c1 | 3.1 (≈ 11.2 µM) |
| O=c1cc(-c2ccccc2)nc(/C=C/c2ccccc2)[nH]1 | 0.4 (≈ 1.46 µM) |
| Cc1ccc2oc(C(=O)N(Cc3ccccc3)C3CCS(=O)(=O)C3)c(C)c2c1 (stereo not given) | 1.6 (≈ 4.03 µM) |
| Nc1cccc(-c2cn3cccnc3n2)c1 | 25.9 (≈ 123 µM) |
| Cc1cc(C)c2nc(C)cc(Nc3ccc(C(=O)N(C)C)cc3)c2c1 | 5.6 (≈ 16.8 µM) |

| Structure (SMILES) | solubility kinetic [µg/mL] |
| --- | --- |
| Cc1nnc(SC(C)C(=O)NCC2CCCO2)s1 (stereo not given) | > 43.1 |
| O=[N+]([O-])c1ccc(N2CCOCC2)c2cccnc12 | > 38.9 |
| CN1CCN(NC(=O)CC(C)(C)C)CC1 | > 32 |
| Cc1ccc(C(=O)OC(C)CN2CCOCC2)cc1.Cl (stereo not given) | 38.9 |
| CC(C)Oc1nc(-c2ccccc2Cl)nc2ccccc12 | 0.4 (≈ 1.34 µM) |
| COc1ccc(CNc2c(CO)cnc3c2cnn3C)cc1 | > 44.8 |
| CC(C)c1ccc2nc(SCC(=O)NCC3CCCO3)c(C#N)cc2c1 (stereo not given) | 2.4 (≈ 6.5 µM) |
| Cc1ccc(C(=O)NCCNC(=O)c2ccc(C)nc2)cc1 | > 44.6 |
| COC(=O)C1CSC(C)(C)C(=O)N1 (stereo not given) | > 30.5 |
| CCOC(=O)c1c(C)[nH]c(C)c1S(=O)(=O)N1CCOCC1 | > 47.5 |
| Cc1ccc(-c2csc(-c3cc(C)on3)n2)cc1 | < 0.3 |
| Cc1ccc(S(=O)(=O)NCCCC(=O)N2CCC(C)CC2)cc1 | > 50.8 |
| CS(=O)(=O)N(CC(=O)N1CCCC1)c1cccc(F)c1 | 44.3 (≈ 147 µM) |
| O=C(Cn1c(=O)oc2ccccc21)Nc1ccccc1C(F)(F)F | 10 (≈ 29.7 µM) |
| COc1ccccc1OCCC(=O)OCC(=O)Nc1ccc2c(c1)OCO2 | 16.3 (≈ 43.7 µM) |
| COc1ccc(C2CC(=O)C(C=NCCO)=C(O)C2)cc1 (stereo not given) | 38 (≈ 131 µM) |
| CCOC(=O)c1cc(C(C)(C)C)n(CCCN2CCOCC2)c1C | 47.5 (≈ 141 µM) |
| CC(C)CC1NC(=O)N(CC(=O)Nc2cc([N+](=O)[O-])ccc2F)C1=O (stereo not given) | > 52.8 |
| Cc1ccccc1Nc1c([N+](=O)[O-])ccc2nonc12 | 0.2 (≈ 0.74 µM) |
| O=C(CN1C(=O)c2ccccc2S1(=O)=O)Nc1ncc(Cl)cc1Cl | > 57.9 |
| Cc1ccc(S(=O)(=O)NC2CCCCCC2)cc1 | > 40.1 |
| Cn1ccnc1SCc1cccc([N+](=O)[O-])c1 | > 37.4 |
| Fc1cc(Br)ccc1NC(=S)Nc1cccnc1 | 44.8 (≈ 137 µM) |
| CC1CN(C(=O)Nc2ccc(Br)cc2Cl)CC(C)O1 (stereo not given) | 30.3 (≈ 87.2 µM) |

| Structure (SMILES) | solubility kinetic [µg/mL] |
| --- | --- |
| CN1CCN(C(=O)C2CCN(S(=O)(=O)c3ccc(F)cc3)CC2)CC1 | 38.5 (≈ 104 µM) |
| Cc1ccc(C(=O)OCC(=O)N2CCCCCC2)c(O)c1 | 14 (≈ 48.1 µM) |
| O=S(=O)(c1ccc(S(=O)(=O)N2CCCC2)cc1)N1CCCCC1 | < 0.4 |
| Cn1c(O)c(/C=N/NC(=O)c2ccncc2)c(=O)n(C)c1=S | > 47.9 |
| c1ccc(-n2ccnc2)cc1 | 19.7 (≈ 137 µM) |
| O=C(COC(=O)[C@H](Cc1ccccc1)NC(=O)c1ccco1)Nc1ccccc1OC(F)F | 64 (≈ 140 µM) |
| S=C(Nc1ccccc1Oc1ccccc1)NC1CCCC1 | 5 (≈ 16 µM) |
| COc1ccc(NC2c3ccccc3C(=O)N2c2ccccn2)cc1 (stereo not given) | 34.1 (≈ 103 µM) |
| O=[N+]([O-])c1ccc(O)c(C(C#Cc2ccccc2)N2CCOCC2)c1 (stereo not given) | 12.9 (≈ 38.1 µM) |
| O=C(O)C1Cc2ccccc2CN1C(=O)CCl (stereo not given) | > 38.1 |
| Oc1ccc(Br)cc1CNc1cccc2cccnc12 | 1 (≈ 3.04 µM) |
| CC(C)C(NC(=O)CN1C(=O)c2cccc3cccc1c23)C(C)C | 2.1 (≈ 6.47 µM) |
| Cc1cc(C(=O)NC(C)CCc2ccccc2)ccc1[N+](=O)[O-] (stereo not given) | 4 (≈ 12.8 µM) |
| CC(C)c1ccc(-c2c(NCCc3ccccc3)c(=O)c2=O)cc1 | 0.9 (≈ 2.82 µM) |
| Cc1ccc(S(=O)(=O)N2CCN(C(=O)Cn3c(=O)oc4ccccc43)CC2)cc1 | 12.7 (≈ 30.6 µM) |
| Cc1ccc(S(=O)(=O)N(C)c2ccc(OC(=O)c3cccs3)cc2)cc1 | 1.2 (≈ 3.1 µM) |
| CC1CCCN(CC(=O)NC(=O)NC2CCCCC2)C1 (stereo not given) | > 42.2 |
| Cn1c(N)c(C(C[N+](=O)[O-])c2c(F)cccc2Cl)c(=O)n(C)c1=O (stereo not given) | > 53.5 |
| COc1ccccc1CN(C)C(=O)CSCC(=O)Nc1ccccc1F | > 56.5 |
| O=C1CC(C2CCCO2)C(=O)N1c1ccc(Cl)c(Cl)c1 (stereo not given) | > 47.1 |
| [Cl-].c1ccc(Cn2c[n+](Cc3ccccc3)c3ccccc32)cc1 | 42.9 |
| Fc1ccccc1CN1CCC(Cc2ccccc2)CC1 | 25.9 (≈ 91.4 µM) |
| Cn1cccc1-c1nc2ccccc2n1C | > 31.7 |
| CCCCn1c(N)c(N(CC)C(=O)c2ccccc2C)c(=O)[nH]c1=O | 49.5 (≈ 144 µM) |

| Structure (SMILES) | solubility kinetic [µg/mL] |
| --- | --- |
| Cc1ccc(NC(=O)CO/N=C/c2ccccc2C)c(C)c1 | 8.7 (≈ 29.4 µM) |
| CNS(=O)(=O)c1ccc(N2CCCC2)c([N+](=O)[O-])c1 | > 42.8 |
| C/C(=N\n1c(C)nc2ccccc2c1=O)c1ccc(N)cc1 | > 43.9 |
| COc1ccccc1C(=O)NCCN1CCN(c2ccccc2)CC1.Cl | 52.7 |
| O=C(Cc1ccc(-c2ccccc2)cc1)NC1CCCC1 | < 0.6 |
| O=C(O)CNS(=O)(=O)c1cccc(Cl)c1 | > 37.5 |
| O=S(=O)(Nc1ncnc2sccc12)c1cccc(F)c1 | > 46.4 |
| CC(C)c1ccc(NC(=O)COC(=O)[C@@H]2CCCN2C(=O)c2cccs2)cc1 | 13.3 (≈ 33.2 µM) |
| CC(c1ccccc1)N1C(=O)OC(C)(C)C1(C)O (stereo not given) | > 37.4 |
| COc1ccc2c(c1)c(C(=O)CN1CCCCC1)c(C)n2C | 44.3 (≈ 147 µM) |
| Cc1nc(Cl)c(C#N)c2c1CCCC2 | 17.5 (≈ 84.7 µM) |
| Cc1ccc(OCCNC(=O)CCc2nc3sc4c(c3c(=O)[nH]2)CCCC4)cc1 | 5.6 (≈ 13.6 µM) |
| C[C@@H]1C(NC(=O)c2ccccc2)CC2CC1C2(C)C (stereo not given in full) | 6.4 (≈ 24.9 µM) |
| Cc1ccccc1CC(=O)NCCN1CCCCC1 | > 39.1 |
| O=C(O)CCC(=O)N1CCc2c([nH]c3ccccc23)C1C(F)(F)F (stereo not given) | > 51 |
| CCC(CO)NCC(O)COCc1ccc2c(c1)OCO2 (stereo not given) | > 44.6 |
| CCOC(=O)c1ccccc1NC(=O)C1CSC2(C)CCC(=O)N12 (stereo not given) | > 52.3 |
| CC(=O)NS(=O)(=O)c1ccc(NC(=S)NC(=O)C2CCC2)cc1 | > 53.3 |
| COc1ccc(/C=C2\SC(N)=NC2=O)cc1Br | 5.3 (≈ 16.9 µM) |
| CCCCC(=O)Nc1ccccc1N1CCN(c2ccc(F)cc2)CC1 | 4.3 (≈ 12.1 µM) |
| Cc1ccc(C2(c3noc(CN(C)Cc4cccnc4)n3)CCCC2)cc1 | 42.1 (≈ 116 µM) |
| CN(C1CCCCC1)S(=O)(=O)c1ccc(=S)[nH]c1 | 22.8 (≈ 79.6 µM) |
| O=C(Nc1ccc(OCc2ccccc2)cc1)c1cccs1 | < 0.7 |
| Brc1ccc(-n2cnc(-c3ccccc3)c2)cc1 | 1 (≈ 3.34 µM) |
